Where two headings read alike, the source gives them in different places.
Assays:
IDO [1] = molecular target: T1, IDO (Homo sapiens, UniProt P14902); experiment: Measurement of median effective inhibition concentration IC50 (IDO enzyme); assay type: biochemical; parameters: made in house; host or cells: Escherichia coli
Description: (§1) The IDO inhibitory activity with respect to each compound was detected using the methods described in the literature. 50 mM potassium phosphate buffer (pH 6.5), 40 mM vitamin C, 400 μg/ml catalase, 20 μM methylene blue and IDO enzyme were mixed together in a 96-well plate. The substrate L-tryptophan and the sample to be tested were then added to the aforementioned mixture. The reaction was carried out for 60 minutes at 37° C., after which the reaction was terminated by adding 30% (w/v) trichloroacetic acid. The 96-well plate was heated to 65° C. for 15 minutes to complete the conversion from formylkynurenine to kynurenine, and centrifugation was performed with 6000 g for 5 minutes. 100 μl of supernatant was removed from each well and transferred to a new 96-well plate, after which an acetic acid solution of 2% (w/v) p-(dimethylamino)benzaldehyde was added, and the yellow color produced as a result of the resulting reaction with kynurenine was observable at 490 nm in a microplate reader; the experimental results are shown in Table 1.
50 mM potassium phosphate buffer (pH 6.5), 40 mM vitamin C, 400 μg/ml catalase, 20 μM methylene blue, […] of the substrate L-tryptophan and inhibitor were mixed together.

IDO [2] = molecular target: T1, IDO; experiment: Measurement of IC50 (cells): HEK 293 cells transfected with pcDNA3.1-hIDO plasmid; assay type: cell-based; parameters: expressed in transfected cells; host or cells: HEK 293; conditions: as headed in Table 1, column 3; read-out: IC50 (μM) (Cell)
Description: The liposome Lipofectamin 2000 was used to transfect HEK 293 cells with the pcDNA3.1-hIDO plasmid. When measuring the inhibition activity at the cellular level, the HEK293 cell culture medium corresponded to high glucose DMEM, containing 50 U/mL penicillin, 50 U/mL streptomycin and 10% FBS, and culturing was performed at 37° C. under 5% CO2.

IDO [3] = molecular target: T1, IDO; experiment: Determining inhibitor type and Ki value measurement (Dixon plot); assay type: biochemical; parameters: made in house; host or cells: Escherichia coli
Description: as §1

T lymphocytes = experiment: T-cell proliferation assay (spleen lymphocytes + LLC cells, WST-1); assay type: cell-based, mice; conditions: 50 μM IDO inhibitor, 72 hours
Description: Isolation of Spleen Lymphocytes (Performed in Accordance with the Lymphocyte Separation Medium Instructions):
1. Two mice were sacrificed by cervical dislocation and spleens were removed on a sterile table and placed into a 6 cm plate containing an RP1640 culture medium for later use.
2. A 100 μm mesh was placed in a 50 mL centrifuge tube and each spleen was cut into smaller pieces using scissors, milled on top of the sieve and a small amount of RP1640 was added for preservation purposes.
3. A lymphocyte separation medium equivalent to twice the volume of the resulting slurry was then added.
4. Centrifugation was performed at 800 g for 20 minutes, after which three distinct layers were visible, with the middle layer showing a slight yellowish tint.
5. Cells in the middle layer were removed and an RP1640 culture medium was added to perform a reverse wash. Cells were then centrifuged at 250 g for 10 minutes at room temperature, and the cells were collected.
6. The culture medium was aspirated off and cells were resuspended in the RP1640 medium, after which a cell count was performed.
LLC (Lewis Lung Carcinoma) Cell Treatment:
1. A medium (high glucose DMEM, 10% FBS) was aspirated off and washing was performed 1-2 times using PBS;
3. The trypsin was aspirated off and a culture medium was added, after which cells were pipetted off and transferred to a 1.5 mL centrifuge tube;
4. Centrifugation followed by aspiration of the supernatant was performed, and cells were resuspended in 1 mL of the DMEM culture medium;
5. Mitomycin C (final concentration: 25 μg/mL) was added, the mixture was pipetted up and down until homogeneous, and the mixture was placed in a 37° C. bath for 30 minutes;
6. Washing was performed 3 times with RP1640, the cells were counted and the sample was set aside.
1. Treated LLC cells (2×10^4 cells/well; stimulator cells) and spleen lymphocytes (10^5 cells/well; reaction cells) were added to a 96-well plate, after which RP1640 (10% FBS was added to bring the volume to 200 μL;
3. A WST-1 reagent kit was used to measure T-cell proliferation, and absorbance values at a wavelength of 450 nm were measured using a plate reader;
4. […] Experimental Results

Lewis lung carcinoma [4] = system: Lewis lung carcinoma
Lewis lung carcinoma [5] = experiment: LLC Lewis tumor model, prophylactic administration; conditions: for tumor inhibition rate, tumor volume basis / tumor inhibition rate, tumor weight basis: prophylactic administration; for tumor formation, days after the start of administration: prophylactic administration via gavage, test compound: high dosage group
[6] = 200 mg/kg via gavage, two weeks, post-inoculation
[7] = high dosage group 150 mg/kg via gavage
[8] = low dosage group 75 mg/kg via gavage

T1 sequence (P14902 whole entry): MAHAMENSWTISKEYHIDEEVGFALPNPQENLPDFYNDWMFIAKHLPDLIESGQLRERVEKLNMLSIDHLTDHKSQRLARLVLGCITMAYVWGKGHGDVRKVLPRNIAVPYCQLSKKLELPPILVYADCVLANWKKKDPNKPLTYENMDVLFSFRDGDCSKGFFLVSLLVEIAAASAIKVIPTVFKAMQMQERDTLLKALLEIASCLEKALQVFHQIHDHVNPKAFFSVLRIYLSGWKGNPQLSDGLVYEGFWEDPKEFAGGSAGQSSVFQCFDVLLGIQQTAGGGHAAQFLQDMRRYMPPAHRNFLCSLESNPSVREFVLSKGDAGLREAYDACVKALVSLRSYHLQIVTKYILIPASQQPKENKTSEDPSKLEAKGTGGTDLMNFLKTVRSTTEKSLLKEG

Structure (SMILES): Cc1ccc2nc3n(c(=O)c2c1)-c1ccccc1C3=O [Comparative Example, 2-methyl-indole[2,1-b]quinazoline-6,12-dione, reference compound]
- IC50 (IDO [1]; method of Embodiment Example 9-11, read-out: IDO inhibitory activity in vitro IC50): 997 µM

Structure (SMILES): CN1CCN(Cc2ccc3nc4n(c(=O)c3c2)-c2ccccc2C4=O)CC1 [Embodiment Example 6, 2-((4-methyl-piperazin-1-yl)methyl)indolo[2,1-b]quinazoline-6,12-dione]
- IC50 (IDO [2]): 2.52 µM
- IC50 (IDO [1]; as headed in Table 1, column 4, read-out: IC50): 0.97 µM
- Inhibition Type (IDO [3]; Dixon plot (1/v-[I])): Anticompetitive
- Ki (IDO [3]; plot of S/v-[I], read-out: Ki (μM) (in vitro)): 5.97 µM
- T-Cell Proliferation Rate (T lymphocytes): 39.40%

Structure (SMILES): O=C1c2cc(F)ccc2-n2c1nc1ccc(CN3CCNCC3)cc1c2=O [Embodiment Example 3, 8-fluoro-2-(piperazin-1-ylmethyl)indolo[2,1-b]quinazoline-6,12-dione]
- T-Cell Proliferation Rate (T lymphocytes): 40.64%

Structure (SMILES): CN1CCN(Cc2ccc3nc4n(c(=O)c3c2)-c2ccc(F)cc2C4=O)CC1 [Embodiment Example 4]
- T-Cell Proliferation Rate (T lymphocytes): 41.24%
- tumor inhibition rate, tumor volume basis (Lewis lung carcinoma [4]; [6]): 23.38%
- tumor inhibition rate, tumor volume basis (Lewis lung carcinoma [5]; [7]): 62.15%
- tumor inhibition rate, tumor weight basis (Lewis lung carcinoma [5]; [7]): 57.8%
- tumor inhibition rate, tumor volume basis (Lewis lung carcinoma [5]; [8]): 46.62%
- tumor formation, days after the start of administration (Lewis lung carcinoma [5]): > 20 days

Structure (SMILES): CC(=O)O[C@H]1C(=O)[C@@]2(C)[C@H]([C@H](OC(=O)c3ccccc3)[C@]3(O)C[C@H](OC(=O)[C@H](O)[C@@H](NC(=O)c4ccccc4)c4ccccc4)C(C)=C1C3(C)C)[C@]1(OC(C)=O)CO[C@@H]1C[C@@H]2O [paclitaxel]
- tumor inhibition rate, tumor volume basis (Lewis lung carcinoma [4]; 100 mg/kg intravenous injection once per week, post-inoculation): 51.45%
- toxic side effects observed in mice (Lewis lung carcinoma [4]; mouse, in vivo): losing weight, losing their fur and showing less movement in general

Structure (SMILES): O=C1c2cc(F)ccc2-n2c1nc1ccc(CN3CCOCC3)cc1c2=O [Embodiment Example 5, 8-fluoro-2-((morpholino-1-yl)methyl)indolo[2,1-b]quinazoline-6,12-dione]
- T-Cell Proliferation Rate (T lymphocytes): 50.27%

Structure (SMILES): Cn1cc(C[C@H](N)C(=O)O)c2ccccc21 [1-MT, 1-methyl-tryptophan, reference compound]
- in vivo Lewis lung carcinoma tumor growth compared to the control group (Lewis lung carcinoma [4]; [6]): significant inhibition
- tumor inhibition rate, tumor volume basis (Lewis lung carcinoma [4]; [6]): 15.68%
- tumor inhibition rate, tumor volume basis (Lewis lung carcinoma [5]; [7]): 32.35%
- tumor inhibition rate, tumor weight basis (Lewis lung carcinoma [5]; [7]): 28.2%
- tumor inhibition rate, tumor volume basis (Lewis lung carcinoma [5]; [8]): 27.00%
- tumor formation, days after the start of administration (Lewis lung carcinoma [5]): 13 days

Structure (SMILES): CC(C)(C)OC(=O)N1CCN(Cc2ccc3nc4n(c(=O)c3c2)-c2ccc(F)cc2C4=O)CC1 [Embodiment Example 2, 4-((8-fluoro-6,12-dioxo-6,12-dihydroxy-indolo[2,1-b]quinolin-2-yl)methyl)piperazine-1-carboxylic acid tert-butyl ester]
- T-Cell Proliferation Rate (T lymphocytes): 38.48%

Structure (SMILES): CN(C)Cc1ccc2nc3n(c(=O)c2c1)-c1ccc(F)cc1C3=O [Embodiment Example 1, 2-((dimethylamino)methyl)-8-fluoro-indolo[2,1-b]quinazoline-6,12-dione]
- T-Cell Proliferation Rate (T lymphocytes): 4.88%
